Results from patent US8765791B2, “Method of treating cancer using a neuropeptide Y 5R (NP Y5R) antagonist” (University Health Network, priority 2008, dated 2014).

Columns and labels:
[1] = test system: Hodgkin Lymphoma cells, HD-MYZ; experiment: Hodgkin lymphoma xenograft model, MK0557 vs AVASTIN (Example 14); assay type: in vivo, NOD-SCID mice; conditions: for inhibition rate (tumor volume) / inhibition rate (tumor weight): versus vehicle
Text: Hodgkin lymphoma cells, HD-MYZ, were implanted in NOD-SCID mice. […] Tumor volume and tumor growth were monitored during the experiment.

[2] = cited from earlier work
mouse NPY6R = target: T1, mouse NPY6R (Mus musculus, UniProt Q61212); conditions: at a concentration of 10 μM; cited from earlier work
T1 sequence (Q61212 1-371): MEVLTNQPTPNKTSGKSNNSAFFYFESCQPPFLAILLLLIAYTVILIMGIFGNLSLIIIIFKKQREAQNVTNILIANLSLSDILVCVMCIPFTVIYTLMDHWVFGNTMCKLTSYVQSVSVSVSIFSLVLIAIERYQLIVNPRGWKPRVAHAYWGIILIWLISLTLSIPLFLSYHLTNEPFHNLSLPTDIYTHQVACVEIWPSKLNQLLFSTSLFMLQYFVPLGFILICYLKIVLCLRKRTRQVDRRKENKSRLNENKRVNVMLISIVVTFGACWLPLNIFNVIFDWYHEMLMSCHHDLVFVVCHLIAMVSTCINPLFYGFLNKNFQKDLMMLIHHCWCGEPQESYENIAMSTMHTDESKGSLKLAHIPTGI

[3] = test system: Hodgkin Lymphoma cells, HD-MYZ; experiment: Hodgkin lymphoma xenograft model (Example 12); assay type: in vivo, NOD-SCID mice; conditions: 30 mg/kg i.p. 3/week, approximately 2 weeks
Text: Hodgkin lymphoma cells, HD-MYZ (1 million), were implanted s.c. on the right flank of NOD-SCID mice (Cat#001303, female, 4-6 weeks from Jackson laboratories, Bar Harbor, Me.). The mice were divided into four groups, 5 mice for each group. […] The tumor growth was monitored during the experiment. […] (FIG. 13)

[4] = test system: Hodgkin Lymphoma cells, HD-MYZ; experiment: Hodgkin lymphoma xenograft model (Example 5); assay type: in vivo, NOD-SCID mice; conditions: 30 mg/kg ip 2/week, to day 36
Experimental: Hodgkin Lymphoma cells, HD-MYZ, (4 million) were injected subcutaneously on the left flank of 10-12 week old, female NOD-SCID mice (from The Jackson Lab, Cat#001303). […] The mice were sacrificed on day 36 when the experiment ended (FIG. 6).

human NPY1R = target: T2, human NPY1R (Homo sapiens, UniProt P25929); conditions: at a concentration of 10 μM; cited from earlier work
T2 sequence (P25929 1-384): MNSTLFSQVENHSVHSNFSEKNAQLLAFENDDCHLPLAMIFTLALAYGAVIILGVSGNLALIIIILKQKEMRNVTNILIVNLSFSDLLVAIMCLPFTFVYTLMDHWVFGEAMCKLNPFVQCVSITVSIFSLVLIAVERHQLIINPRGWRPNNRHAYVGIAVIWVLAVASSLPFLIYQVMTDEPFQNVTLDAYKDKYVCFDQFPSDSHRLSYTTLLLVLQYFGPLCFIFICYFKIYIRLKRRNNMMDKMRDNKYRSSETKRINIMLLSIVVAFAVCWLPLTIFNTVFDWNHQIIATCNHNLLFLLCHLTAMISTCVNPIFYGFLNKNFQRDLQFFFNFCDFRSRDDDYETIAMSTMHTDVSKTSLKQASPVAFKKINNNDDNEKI

Rat glioma cells = experiment: brain cancer xenograft model (Example 7); assay type: in vivo, CB17-SCID mice
Experimental: Rat glioma cells (2×10^6) were implanted in CB17-SCID mice. The mice were treated with MK0557 at 30 mg/kg, or vehicle (15% of 0.5%) CMC (carboxymethylcelulose) (low viscosity) and 85% of 0.2% Tween80 in water) intraperitoneally daily for the first week followed by once every two days injections.

MCF-7 cells = experiment: breast cancer xenograft model (Example 4); assay type: in vivo, SCID mice
Experimental: MCF-7 cells were dissociated from flask surfaces then counted and spun down with a final concentration of 10×10^7 cells/ml produced. A total of 20 SCID mice, aged 6-8 weeks (CRL-CB17), were injected with 10×10^6 cells into lower mammary fat pads. After 3 weeks, all mice were inspected for tumor establishment and were measured for size (FIG. 5).
For this study, a total of 15 mice were selected from a group of 20, which had similar tumor sizes (3×3). Subsequently, these 15 mice were divided into three groups of 5. The first group, the control group, received the vehicle only (20% ETOH and 80% PEG 400); the second group received a dosage of 30 mg/kg of MK0557; and the third group received a dosage of 15 mg/kg of MK0557.
All groups were injected everyday via IP for the first five days, followed by injections every other day.

[5] = test system: Ovarian cancer cells, Caov-3; experiment: ovarian cancer xenograft model (Example 10); assay type: in vivo, CB17-SCID mice
Experimental: Ovarian cancer cells, Caov-3 (2 Million), were implanted in CB17-SCID mice. The mice were treated with MK0557 at 30 mg/kg or vehicle (15% of 0.5% of CMC (carboxymethylcellulose, low viscosity) and 85% of 0.2% Tween 80 in water) intraperitoneally daily for the first week followed by once every two days injections. Both the tumor growth and body weights were monitored for the duration of the experiment.

[6] = test system: Hodgkin Lymphoma cells, HD-MYZ; experiment: Hodgkin's lymphoma xenograft model, MK-0557 and 200464 (Example 16); assay type: in vivo
Text: Hodgkin lymphoma cells, HD-MYZ, were implanted in NOD-SCID mice, female, 4-6 weeks from Jackson's Laboratory (Maine). The treatments were started day 6 after tumor implantation. The mice were divided to six groups, 4-5 mice from each group. The treatment started with a tumor volume of about 70 mm3 after tumor implantation.

human NPY4R = human NPY4R (Homo sapiens, UniProt P50391); conditions: at a concentration of 10 μM; cited from earlier work
[7] = 15 mg/kg i.p. every day×3 weeks
[8] = 60 mg/kg p.o. every day×3 weeks
[9] = 30 mg/kg intraperitoneally daily first week then once every two days
[10] = group 4: MK 0557 30 mg/kg i.p. 3 times for each week, versus vehicle

Chain of human NPY4R (P50391 whole entry): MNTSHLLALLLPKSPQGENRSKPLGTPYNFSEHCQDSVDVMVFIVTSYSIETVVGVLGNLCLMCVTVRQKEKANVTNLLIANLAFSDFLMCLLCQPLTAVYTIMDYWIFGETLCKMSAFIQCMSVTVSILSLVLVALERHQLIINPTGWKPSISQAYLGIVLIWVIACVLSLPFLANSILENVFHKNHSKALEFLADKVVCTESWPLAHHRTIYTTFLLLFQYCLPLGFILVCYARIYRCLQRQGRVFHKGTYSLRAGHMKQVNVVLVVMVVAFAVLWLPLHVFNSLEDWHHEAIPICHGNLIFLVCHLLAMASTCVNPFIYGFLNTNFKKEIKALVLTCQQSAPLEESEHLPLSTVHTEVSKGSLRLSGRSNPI

Compound: O=C1O[C@]2(CC[C@H](C(=O)Nc3ccn(-c4ccccc4F)n3)CC2)c2cnccc21 [MK-0557, trans-N-[1-(2-fluorophenyl)-3-pyrazolyl]-3-oxospiro[6 azaisobenzofuran-1(3H), 1′-cyclohexane]-4′carboxamide]
- Mean Tumor Volume [1, 7]: 698.76±61.19 mm^3
- Mean Tumor Weight [1, 7]: 0.40 ± 0.09 g
- inhibition rate (tumor volume) [1, 7]: 73.13%
- inhibition rate (tumor weight) [1, 7]: 84.19%
- Mean Tumor Volume [1, 8]: 671.97±96.89 mm^3
- Mean Tumor Weight [1, 8]: 0.43 ± 0.17 g
- inhibition rate (tumor volume) [1, 8]: 74.16%
- inhibition rate (tumor weight) [1, 8]: 83.0%
- reduction in weight regain ([2]; following very-low-calorie-diet induced weight loss): did not result in a clinically meaningful reduction in weight regain
- weight loss ([2]; overweight or obese adults, 1 mg/day, 5 mg/day or 25 mg/day): did not induce clinically meaningful weight loss
- binding to mouse NPY6R (mouse NPY6R): does not significantly bind
- tumor growth [3]: inhibited tumor growth
- tumor growth [4]: inhibition of tumor growth
- binding to human NPY1R (human NPY1R): does not significantly bind
- effect on mouse body weights (Rat glioma cells; 30 mg/kg intraperitoneally): no obvious effect
- tumor growth (Rat glioma cells; [9]): Tumor growth was inhibited
- mice tumor free (MCF-7 cells; 30 mg/kg IP, third week): 4 out of 5
- tumor growth (MCF-7 cells; MCF-7 xenograft, 30 mg/kg and 15 mg/kg IP): dose-dependent inhibition of tumor growth
- tumor size in treated groups (MCF-7 cells; second week, 30 mg/kg and 15 mg/kg IP): tumor shrinkage was noticed
- change in body weight ([5]; 30 mg/kg intraperitoneally): not significantly affected
- tumor growth [5, 9]: inhibited tumor growth
- tolerability of the doses by the mice ([6]; doses of Example 16, except group 6): well tolerated
- Mean Tumor Volume ([6]; group 4: MK 0557 30 mg/kg i.p. 3 times for each week): 435.54+/−72.17 mm^3
- inhibition rate (tumor volume) [6, 10]: 70.94%
- inhibition rate (tumor weight) [6, 10]: 67.30%
- Mean Tumor Weight ([6]; group 4: MK 0557 30 gm/kg i.p. 3 times for each week): 0.3048 ± 0.0696 g
- binding to human NPY4R (human NPY4R): does not significantly bind
